Results taken from article PMC4530474, “Carbohydrate scaffolds as glycosyltransferase inhibitors with in vivo antibacterial activity” (Nature Communications, 2015).
pIC50: −log10 of the molar value. Converted amounts (≈) assume the structure as drawn. “Also recorded” adds a separate entry of the source.

Legend:
Gram-positive bacteria = assay: MIC of disaccharide library; format: cell-based
From the text: In the second stage, we used the disaccharide structure–activity relationship information to design more synthetically feasible and smaller monosaccharide molecules. A versatile solid-phase method was developed to rapidly synthesize the representatives of three different core chemotypes M1 to M3, starting from a single monosaccharide building block, that is, 1,5-anhydro-galactitol (see Fig. 3). Chemotype M1 explored the option of using only two of the hydrophobic elements, whereas the other two, M2 and M3, used a benzimidazole moiety as the third hydrophobic group (Fig. 3).

S. aureus = assay: MIC of disaccharide and monosaccharide libraries (Figures 2, 3); settings: Staphylococcus aureus
Method: (§1) Bacteria were cultured in Brain–Heart Infusion (Bacto laboratories, Cat. no. CM1135B) at 37 °C overnight. […] MICs were determined visually as the lowest concentration showing no visible growth.

S. aureus Newbould 305 = assay: MIC determination (Mueller-Hinton agar dilution); format: cell-based; settings: Staphylococcus aureus
From the text: guidelines 23. […] In addition
The animal experiments were
To evaluate the dose-response

Human red blood cells = settings: male, 1 h
Method: Human male red blood cells were isolated from fresh whole blood sample and washed with phosphate
buffered saline (PBS) 3 times. Red blood cells were diluted 1/200 with PBS for the haemolysis assay.
Each compound was assayed at 4 different concentrations in quadruplicate. Control items (100 μM
tamoxifen and 1% triton X100) were also assayed in quadruplicate. Background was determined with
1% DMF. The assay was performed for 1 h at 37 °C. The samples were then centrifuged for 10 min at
4°C at 1000 × g, the supernatant was recovered and absorption was measured at 415 nm. Results are
expressed as the % haemolysis compared to 1% triton X100 after background was subtracted, and
fitting dose response curve with Prism (GraphPad) to extract HC50 values.

[1] = microsomes
Method: In vitro metabolic stability studies
(§2) Compounds (1 μM) were incubated at 37 °C with human or mouse liver microsomes. The reaction was
(§3) initiated by the addition of an NADPH-regenerating system and quenched at various time points over
(§4) the incubation period by the addition of acetonitrile. Additional samples co-activated by NADP and
(§5) UDPGA (the co-factor for glucuronidation), were included in the incubation for the qualitative
(§6) assessment of the potential for glucuronide formation. The relative loss of parent compound and
(§7) formation of metabolic products was determined by LC/MS using the Q-TOF instrument. The studies
(§8) were conducted by a contract research organization (Centre for Drug Candidate Organization, Monash
University, Melbourne, Australia).
In vivo efficacy and PK studies
(§9) The in vivo pharmacokinetics of the compounds were studies in overnight-fasted male Sprague Dawley
(§10) Rats had access to water ad libitum throughout the pre- and post-dose
(§11) sampling period, and access to food was re-instated 4 hours post-dose. Compounds were
(§12) administrated IV as a 10 minute constant rate infusion (1.0 mL per rat, n=2 rats). Samples of arterial
(§13) Arterial blood was collected directly into
(§14) borosilicate vials (at 4 °C) containing heparin, Complete (a protease inhibitor cocktail), potassium
(§15) fluoride and EDTA to minimize potential for ex vivo degradation. Once collected, blood samples were […]
determined by LCMS (LLQ 0.0014 M). […]

[2] = mouse liver microsomes, 1 μM, 37 °C
Method: In vitro metabolic stability studies
as §2, §3, §4, §5, §6, §7, §8
University, Melbourne, Australia).
In vivo efficacy and PK studies
as §9, §10, §11, §12, §13, §14, §15
determined by LCMS (LLQ 0.0014 M). […]

[3] = rat, in vivo, iv
Method: In vitro metabolic stability studies
as §2, §3, §4, §5, §6, §7, §8
University, Melbourne, Australia).
In vivo efficacy and PK studies
as §9, §10, §11, §12, §13, §14
(§16) fluoride and EDTA to minimize potential for ex vivo degradation. Once collected, blood samples were
(§17) centrifuged, supernatant plasma was removed, and plasma concentration of compounds were
(§18) determined by LCMS (LLQ 0.0014 M). The studies were conducted by a contract research organization
(§19) (Centre for Drug Candidate Organization, Monash University, Melbourne, Australia).

in vivo [4] = settings: male, Sprague Dawley, rat, iv, 3.5 mg/kg
Method: In vitro metabolic stability studies
as §2, §3, §4, §5, §6, §7, §8
University, Melbourne, Australia).
In vivo efficacy and PK studies
as §9, §10, §11, §12, §13, §14, §16, §17, §18, §19

in vivo [5] = settings: male, CD-1, mouse, ip
Method: In vivo Maximum Tolerated Dose
(§20) Compound dissolved in 0.05% Tween 80/0.9% NaCl were each administered IP at doses of 20, 60 and
(§21) 100 mg kg-1 to groups of 2 CD-1 (Crl.) derived male mice weighing 22 ± 2 g. The animals were observed
(§22) for presence of acute toxic symptoms (mortality, convulsions, tremors, muscle relaxation, sedation,
(§23) etc.) and autonomic effects (diarrhea, salivation, lacrimation, vasodilation, piloerection, etc.) during
the first 30 min post-dosing.
(§24) For the IV studies, compounds were dissolved in 10% DMSO/0.1 M HCl/1% Tween 80/5% Glucose were
(§25) prepared at a dose of 4 mg kg-1 and were administered intravenously once to groups of 3 CD-1 (Crl.)
(§26) derived male mice weighing 22 ± 2 g, and monitored and analyzed similar to the IP study during the
(§27) first 5 min post dosing (IV). In addition, Group 3 and Group 5 were administered intravenously with
(§28) compounds at 4 mg kg-1 for 2 times (T=0 and T=170 minutes) and the autonomic signs and neurological
(§29) changes were observed during the first 5 min after the first and the second dose. Mortality was also

S. aureus (Smith) = assay: Mouse model of septicemia
Method: In vivo Septicaemia mouse model
Groups of 10 male CD-1 (Crl.) derived mice weighing 22 ± 2 g were used. The mice were inoculated
of brain-heart infusion broth containing 5% mucin. Compounds were dissolved in 0.05% Tween
80/0.9% NaCl. Vehicle and compounds at 50 and 100 mg kg-1 were each administered intraperitoneally
10 and/or 180 minutes after S. aureus (Smith) challenge. Ampicillin (0.1 mg kg-1, IP, as positive control
agent) was administered to test animals at 1 h after the inoculation. Mortality was monitored once
For the corresponding IV studies compounds at 4 mg kg-1 were dissolved in 10% DMSO/0.1 M HCl/1%
Tween 80/5% glucose, and compounds were each administered intravenously at 10 min and/or 180
min after S. aureus (Smith) challenge.

[6] = In vivo maximum tolerated dose, i.p.; settings: mice
Method: In vivo Maximum Tolerated Dose
as §20, §21, §22, §23
the first 30 min post-dosing.
as §24, §25, §26, §27, §28, §29

[7] = test system: S. aureus MSSA, ATCC 25923; assay: MIC determination (broth microdilution); settings: Staphylococcus aureus
Method: as §1

[8] = test system: S. aureus MRSA, ATCC 43300; assay: MIC determination (broth microdilution); settings: Staphylococcus aureus
Method: as §1

S. aureus NRS 17—GISA = assay: MIC determination (broth microdilution); settings: Staphylococcus aureus, NRS17
Method: as §1

S. aureus NRS 1—GISA = assay: MIC determination (broth microdilution); settings: Staphylococcus aureus, NRS1
Method: as §1

S. aureus VRS 1 = assay: MIC determination (broth microdilution); settings: Staphylococcus aureus, VRS1
Method: as §1

[9] = test system: S. aureus mMRSA, DRSA, ci; assay: MIC determination (broth microdilution); settings: Staphylococcus aureus
Method: as §1

E. faecium ATCC 35667 = assay: MIC determination (broth microdilution); settings: Enterococcus faecium, ATCC35667
Method: as §1

[10] = test system: E. faecium VanA, ATCC 51559; assay: MIC determination (broth microdilution); settings: Enterococcus faecium, ATCC51559
Method: as §1

E. faecalis ATCC 29212 = assay: MIC determination (broth microdilution); settings: Enterococcus faecalis, ATCC29212
Method: as §1

E. faecalis VanA, ci = assay: MIC determination (broth microdilution); settings: Enterococcus faecalis
Method: as §1

[11] = test system: S. pneumoniae MDR, ATCC 700677; assay: MIC determination (broth microdilution); settings: Streptococcus pneumoniae, ATCC700677
Method: as §1

E. coli ATCC 25922 = assay: MIC determination (broth microdilution); settings: Escherichia coli, ATCC25922
Method: as §1

[12] = test system: S. aureus (Newbould 305, ATCC 29740); assay: Mouse mammary gland infection (mastitis) model
Method: Each compound was instilled at different doses into the teat canal of both contralateral glands from the fourth mammary gland pair of lactating mice at 4 h after bacterial inoculation.
The procedure for mouse mammary gland infection has been recently described[64]. CD-1 lactating mice were utilized 12–14 days after giving birth, with pups weaned 1–2 h before bacterial inoculation of the mammary glands. Inoculation of both left (L4) and right (R4) glands of the fourth abdominal mammary gland pair of anesthetized mice with 150 c.f.u. of S. aureus, was done using 32-gauge syringes (blunt needle). The antimicrobial formulation was instilled into the mammary gland of anesthetized mice at 4 h after bacterial inoculation, followed by i.p. administration of postoperative analgesic Buprecare. […] Bacterial c.f.u. counts were obtained after quantification of serial logarithmic dilutions of mammary gland homogenates on TSA. The detection limit (DL) was 1.7 log10 c.f.u. g^−1 gland weight (for more details see Supplementary Methods).
The actual colony forming units (CFU) of the inocula was confirmed by overnight culture of a serial logarithmic dilution on tryptic soy agar (TSA; Oxoid Limited) plates.

S.aureus MSSA = assay: MIC, chemotype M3 library (Supplementary Table 1); settings: Staphylococcus aureus
Method: as §1

S.aureus MRSA = assay: MIC, chemotype M3 library (Supplementary Table 1); settings: Staphylococcus aureus
Method: as §1

E. faecium = assay: MIC, chemotype M3 library (Supplementary Table 1); settings: Enterococcus faecium
Method: as §1

E. faecium VanB = assay: MIC, chemotype M3 library (Supplementary Table 1); settings: Enterococcus faecium
Method: as §1

E. faecalis = assay: MIC, chemotype M3 library (Supplementary Table 1); settings: Enterococcus faecalis
Method: as §1

E.coli = assay: MIC, chemotype M3 library (Supplementary Table 1); settings: Escherichia coli
Method: as §1

PBP1 from C. difficile = assay: Glycosyltransferase activity by HPLC, NBD-lipid II; settings: 200 μg ml^−1, NBD-lipid II
Method: (§30) We then monitored the transformation of fluorescent NBD-lipid II by two different GT enzymes, PBP1 from Clostridium difficile and MGT from S. aureus.
(§31) 25 °C. The reaction was initiated by addition of glycosyltransferease (2.5 µg mL-1) and terminated by
(§32) The reaction mixtures were then analysed by a
(§33) HPLC system (Hitachi) equipped with an anion-exchange column (5 μm, 4.6 × 250 mm, SAX1, Supelco
(§34) Co.) using a linear gradient of NH4OAc/MeOH (20 mM to 1 M) at a flow rate of 1 mL min-1. The signals
(§35) were detected with a fluorometer at λex = 355 nm and λem = 460 nm.

MGT from S. aureus = MGT from S. aureus (Staphylococcus aureus, UniProt Q99T05); assay: Glycosyltransferase activity by HPLC, NBD-lipid II; settings: 200 μg ml^−1, NBD-lipid II
Method: as §30, §31, §32, §33, §34, §35

[13] = In vivo pharmacokinetics, i.v. administration to male rats; settings: Sprague Dawley, rat, iv, 3.5 mg kg^-1
Method: In vitro metabolic stability studies
as §2, §3, §4, §5, §6, §7, §8
University, Melbourne, Australia).
In vivo efficacy and PK studies
as §9, §10, §11, §12, §13, §14, §16, §17, §18, §19

[14] = test system: bacterial PG biosynthesis in crude B. megaterium membrane; assay: In vitro PG biosynthesis, [14C]UDP-GlcNAc incorporation into lipid II and PG, TLC; settings: for Accumulation of lipid II / Inhibit of PG: vs no antibiotic
From the text: To elucidate the mode of action of the inhibitors, we conducted various GT enzyme inhibition assays. […] This assay monitors [^14C]UDP-GlcNAc incorporation into lipid II and mature PG, in the presence of different concentrations of antibiotics[39]. Owing to the sequential nature of the glycosyltransfer and transpeptidation, it is not possible to determine at which step PG biosynthesis is blocked in this assay. The low concentration of lipid II can be detected by thin-layer chromatography (TLC) separation and subsequent phosphorimaging of pre-solubilized membranes, which was incubated with the cytoplasmic PG precursors UDP-MurNAc-pentapeptide and UDP-[^14C]GlcNAc[41][42].
The cell-free particulate fraction of B. megaterium KM (ATCC13632), capable of catalysing the polymerization of PG from UPD-linked precursors was performed as described previously[61]. B. megaterium was grown in standard medium, harvested and washed with Tris-buffer by centrifugation. Resuspended bacteria were subjected to three freeze/thaw cycles (5 min dry ice, followed by 10 min at RT), homogenized by the glass homogenizer and centrifuged all at 4 °C, leaving most of the cell wall in the pellet. […] After separation, plates were dried, exposed to phosphorimaging screen (1 week), scanned by Typhoon 8600 calculating the integrated density value of each band on silica gel. Changes of PG or lipid II were calculated as a percentage from negative control (for more details see Supplementary Methods).
Inhibition of Lipid II and peptidoglycan biosynthesis
The cell-free particulate fraction of Bacillus megaterium KM (ATCC13632), capable of catalysing the
polymerisation of PG from UPD-linked precursors was performed as described previously 19 with some
modification. Bacillus megaterium was grown in the medium containing tryptone (Difco-Bacto), 1%
the pH to 7.2. Bacteria were harvested when the density had reached to 0.4 mg dry weight mL-1 and
washed in the buffer 0.05 M Tris-HCl (pH 7.8) containing 10 mM MgCl2 by centrifugation at 6,000 x g
for 10 min at 4 °C. All subsequent manipulations were carried out as close to 0 °C as possible.
bacteria were resuspended in the same buffer at a density of 50 mg dry weight ml-1. Then the bacteria
were subjected to three freeze/thaw cycles (dry ice for 5 min followed by RT for 10 min).
freeze/thaw cycles, bacteria were homogenized by using the glass homogenizer at 4 °C (10 min × 2).
The broken cell suspension was centrifuged at 6,000 x g for 10 min at 4 °C. The supernatant which
contained the unbroken cells and the majority of the cell walls was kept for further centrifugation.

S. aureus MGT = S. aureus MGT (Staphylococcus aureus, UniProt Q99T05); assay: Inhibition of glycosyltransferase, continuous fluorescence assay with dansyl-Lys lipid II
From the text: Confirmative dose–response assays were subsequently conducted with continuous fluorescent activity assay using a dansyl-labelled, lysine-lipid II substrate[47]. […] The data were fitted to a simple saturation model of inhibitor binding to a single site, from which IC50 values were extracted.

TG = settings: at 0.1 μg ml^−1; no reference given; cited from earlier work
S.aureus SG511 = settings: no reference given; cited from earlier work
staphylococci = test system: staphylococci; design: method as in earlier work; settings: cited from earlier work
enterococci = test system: enterococci; design: method as in earlier work; settings: cited from earlier work
MR S. aureus, VRE = test system: MR S. aureus, VRE; design: method as in PMID 10464005; settings: cited from earlier work
[15] = design: method as in earlier work; settings: cited from earlier work
[16] = mouse mastitis, intramammary, 4 h after inoculation

Sequence of MGT from S. aureus (Q99T05 whole entry): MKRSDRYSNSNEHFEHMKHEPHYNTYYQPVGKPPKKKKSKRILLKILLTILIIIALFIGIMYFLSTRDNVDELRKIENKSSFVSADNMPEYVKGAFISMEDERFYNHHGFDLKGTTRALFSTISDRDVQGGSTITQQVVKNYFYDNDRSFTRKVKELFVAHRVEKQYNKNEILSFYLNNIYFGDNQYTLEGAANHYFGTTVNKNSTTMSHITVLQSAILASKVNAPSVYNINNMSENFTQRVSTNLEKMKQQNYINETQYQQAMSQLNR
Sequence of S. aureus MGT (Q99T05 whole entry): as above

## NC(CC(=O)NC1C(CO)OCC(NC(=O)Nc2ccc(Cl)c(Cl)c2)C1OC1OC(CO)C(O)C(O)C1NC(=O)Nc1ccc(OC(F)(F)F)cc1)c1ccc(-c2ccccc2)cc1 (stereo not shown) [ACL19378]
Gram-positive bacteria; 50% serum
  Activity in the presence of serum: limited activity
Gram-positive bacteria; Gram-positive bacteria
  MIC: ~2 µg/mL
S. aureus
  MIC: 2 µg/mL

## O=C(Nc1ccc(Cl)c(C(F)(F)F)c1)NC1COC(CO)C(n2c(NCc3ccccc3)nc3cc(C(F)(F)F)ccc32)C1O (stereo not shown) [ACL20215]
S. aureus Newbould 305
  MIC: 2 µg/mL (≈ 3.04 µM)
Human red blood cells
  HC50: 74 µg/mL
[1]
  Metabolic stability (in vitro): No degradation
[2]
  Metabolic stability (degradation of the compound): no degradation
[3]
  % Dose in urine: < LLQ
In vivo [4]
  Vd: 97.2 L/kg
  half-life: 27.2 h
In vivo [4]; Blood Cltotal
  clearance: 48.9 mL/min/kg
In vivo [4]; Plasma Cltotal
  clearance: 42.1 mL/min/kg
In vivo [5]
  MTD at 72 h: 100 mg/kg
S. aureus (Smith); i.p., 50 mg kg^−1, 10 min after inoculation
  Survival 7 days: 100%
S. aureus (Smith); i.v., 4 mg kg^−1, 10 min after inoculation
  Survival 7 days: 10%
[6]
  Good tolerance up to (dose): 60 mg/kg
  No mortality up to (dose): 100 mg/kg
[6]; 100 mg kg^−1
  Central/autonomic responses: some minor changes to central/autonomic responses
[7]
  MIC: 4 µg/mL (≈ 6.08 µM)
[8]
  MIC: 4 µg/mL (≈ 6.08 µM)
S. aureus NRS 17—GISA
  MIC: 8 µg/mL (≈ 12.2 µM)
S. aureus NRS 1—GISA
  MIC: 4 µg/mL (≈ 6.08 µM)
S. aureus VRS 1
  MIC: 4 µg/mL (≈ 6.08 µM)
[9]
  MIC: 4 µg/mL (≈ 6.08 µM)
E. faecium ATCC 35667
  MIC: 16 µg/mL (≈ 24.3 µM)
[10]
  MIC: 8 µg/mL (≈ 12.2 µM)
E. faecalis ATCC 29212
  MIC: 4 µg/mL (≈ 6.08 µM)
E. faecalis VanA, ci
  MIC: 8 µg/mL (≈ 12.2 µM)
[11]
  MIC: 4 µg/mL (≈ 6.08 µM)
E. coli ATCC 25922
  MIC: > 64 µg/mL
[12]; 200 μg gland-1
  Glands Cleared: 0%
[12]; 200 μg gland-1, 14 h post treatment
  CFU/g gland: 8.36 ± 1.05 log10
[12]; 400 μg gland-1
  Glands Cleared: 0%
[12]; 400 μg gland-1, 14 h post treatment
  CFU/g gland: 7.77 ± 0.52 log10
[12]; 800 μg gland-1
  Glands Cleared: 0%
[12]; 800 μg gland-1, 14 h post treatment
  CFU/g gland: 6.60 ± 1.42 log10
[12]; 1000 μg gland-1
  Glands Cleared: 0%
[12]; 1000 μg gland-1, 14 h post treatment
  CFU/g gland: 5.72 ± 0.63 log10
[12]; mouse mastitis, intramammary
  PD50 (50% protective dose): >1,000 μg per gland
  PD100 (100% protective dose): >1,000 μg per gland
[12]; [16]
  ED2logc.f.u. (effective dose to reduce bacterial load by 2 × log(c.f.u.)): 730 μg per gland
  ED4logc.f.u. (effective dose to reduce bacterial load by 4 × log(c.f.u.)): 1,400 μg per gland
S.aureus MSSA
  MIC: 4 µg/mL (≈ 6.08 µM)
S.aureus MRSA
  MIC: 2 µg/mL (≈ 3.04 µM)
E. faecium
  MIC: 16 µg/mL (≈ 24.3 µM)
E. faecium VanB
  MIC: 16 µg/mL (≈ 24.3 µM)
E. faecalis
  MIC: 4 µg/mL (≈ 6.08 µM)
E.coli
  MIC: > 64 µg/mL
PBP1 from C. difficile
  Inhibitory effect on GT (single concentration): some inhibition; also recorded: only moderate effect
MGT from S. aureus
  Inhibitory effect on GT (single concentration): some inhibitory effect
[13]
  blood plasma ratio: 0.86
[14]; 10 μg ml-1, 3 h
  Accumulation of lipid II: -3.4 ± 12.7%
  Inhibit of PG: 0.5 ± 6.7%
[14]; 30 μg ml-1, 3 h
  Accumulation of lipid II: 17.7 ± 7.1%
  Inhibit of PG: 7.9 ± 0.9%
[14]; 100 μg ml-1, 3 h
  Accumulation of lipid II: 34.9 ± 0.6%
  Inhibit of PG: 17.0 ± 1.0%
[14]; 200 μg ml-1, 3 h
  Accumulation of lipid II: 47.1 ± 2.8%
[14]; concentration not given
  Accumulation of lipid II (in words): accumulation of lipid II, although to a lesser extent
S. aureus MGT
  pIC50: 4.59

## CC(=O)N[C@H]1[C@H](O[C@H]2[C@@H](OP(=O)(O)OC[C@@H](OCCC(C)CCCCC(C)(C)CCC(C)CCC(C)CCCC(C)C)C(=O)O)O[C@H](C(N)=O)[C@@](C)(O)[C@@H]2OC(N)=O)O[C@H](CO)[C@@H](O)[C@@H]1O (stereo partly shown) [Disaccharide-degradation product]
TG
  TG inhibition: 45%
S.aureus SG511
  MIC: > 50 µg/mL

## CCCCCCCCCCCCO[C@H](COP(=O)(O)O[C@H]1O[C@H](C(N)=O)[C@@H](O)[C@H](NC(=O)Nc2ccc(OC(F)(F)F)cc2)[C@H]1O[C@@H]1O[C@H](CO)[C@H](O)[C@H](O)[C@H]1NC(=O)c1cccc(C(F)(F)F)c1)C(=O)O [TS30153]
staphylococci
  MIC: 3.12 µg/mL (≈ 2.93 µM)
enterococci
  MIC: 12.5 µg/mL (≈ 11.7 µM)
MR S. aureus, VRE
  MIC: 3.1 – 12.5 μg ml^–1
[15]
  In vivo activity: no in vivo activity

## CN[C@H](CC(C)C)C(=O)N[C@H]1C(=O)N[C@@H](CC(N)=O)C(=O)N[C@H]2C(=O)N[C@H]3C(=O)N[C@H](C(=O)N[C@H](C(=O)O)c4cc(O)cc(O)c4-c4cc3ccc4O)[C@H](O)c3ccc(c(Cl)c3)Oc3cc2cc(c3O[C@@H]2O[C@H](CO)[C@@H](O)[C@H](O)[C@H]2O[C@H]2C[C@](C)(N)[C@H](O)[C@H](C)O2)Oc2ccc(cc2Cl)[C@H]1O [Vancomycin, reference compound]
[7]
  MIC: 1 µg/mL (≈ 0.69 µM)
[8]
  MIC: 1 µg/mL (≈ 0.69 µM)
S. aureus NRS 17—GISA
  MIC: 8 µg/mL (≈ 5.52 µM)
S. aureus NRS 1—GISA
  MIC: 4 µg/mL (≈ 2.76 µM)
S. aureus VRS 1
  MIC: > 64 µg/mL
[9]
  MIC: 4 µg/mL (≈ 2.76 µM)
[10]
  MIC: > 64 µg/mL
[11]
  MIC: 2 µg/mL (≈ 1.38 µM)
[14]; 10 μg ml-1, 3 h
  Accumulation of lipid II: 36.6 ± 6.2%
  Inhibit of PG: 12.8 ± 2.0%
[14]; 30 μg ml-1, 3 h
  Accumulation of lipid II: 106.8 ± 33.4%
  Inhibit of PG: 15.0 ± 3.5%
[14]; 100 μg ml-1, 3 h
  Accumulation of lipid II: 140.6 ± 30.8%
  Inhibit of PG: 21.3 ± 1.4%
[14]; 200 μg ml-1, 3 h
  Accumulation of lipid II: 151.5 ± 23.1%
  Inhibit of PG: 36.0 ± 2.8%
